These results are taken from patent US4518779A, “1,2,3,4-Tetrahydro-1-aminomethyl-4-phenyl isoquinolines” (Pennwalt Corporation, priority 1982, dated 1985).

The test deals with [^3 H]-mepyramine binding in brain homogenates (Rattus norvegicus, UniProt P31390). Description: biochemical. The conditions noted are these: read-out: (^3 H)mepyramine rating: molar concentration required to inhibit by 50% the binding of [^3 H]mepyramine.
Where [1] appears, read: in vitro, brain homogenates, smaller numbers indicate greater potency.

Structures can show the parent of a compound that is named as a salt. Where two headings read alike, the source gives them in different places. A value given as a limit tells only on which side of the number the result lay.

Chain of [^3 H]-mepyramine binding in brain homogenates (P31390 whole entry): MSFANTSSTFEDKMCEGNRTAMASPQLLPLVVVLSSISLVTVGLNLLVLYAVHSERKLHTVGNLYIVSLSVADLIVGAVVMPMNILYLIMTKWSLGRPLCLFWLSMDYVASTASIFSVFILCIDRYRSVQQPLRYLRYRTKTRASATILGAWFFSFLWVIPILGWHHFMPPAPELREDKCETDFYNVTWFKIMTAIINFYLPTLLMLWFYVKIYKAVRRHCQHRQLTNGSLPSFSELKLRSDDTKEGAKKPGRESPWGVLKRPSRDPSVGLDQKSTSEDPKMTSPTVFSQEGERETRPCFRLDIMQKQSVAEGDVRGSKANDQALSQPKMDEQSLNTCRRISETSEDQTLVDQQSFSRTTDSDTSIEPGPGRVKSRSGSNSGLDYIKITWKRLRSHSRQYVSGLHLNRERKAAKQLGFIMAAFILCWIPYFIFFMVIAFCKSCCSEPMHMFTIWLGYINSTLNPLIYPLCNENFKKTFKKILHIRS

As to `CNC[C@@H]1NC[C@H](c2ccccc2)c2ccccc21` (relative stereo) [Example 1 cis form, cis-1,2,3,4-tetrahydro-1-methylaminomethyl-4-phenylisoquinoline dihydrochloride], the IC50 amounted to 3.5 µM.

For `CNC[C@@H]1NC[C@@H](c2ccccc2)c2ccccc21` (relative stereo) [Example 1 trans form, trans-1,2,3,4-tetrahydro-1-methylaminomethyl-4-phenylisoquinoline dihydrochloride], the IC50 was determined as 0.078 µM.

With `CN(C)C[C@H]1c2ccccc2[C@@H](c2ccccc2)CN1C` (relative stereo) [Example 3, 1,2,3,4-tetrahydro-2-methyl-1-dimethylaminomethyl-4-phenylisoquinoline dihydrochloride], under setting [1], the IC50 was determined as 1.8 µM.

Take `CN(C)C[C@@H]1NC[C@H](c2ccccc2)c2ccccc21` (relative stereo) [Example 2, 1,2,3,4-tetrahydro-1-dimethylaminomethyl-4-phenylisoquinoline dihydrochloride]: the IC50 under setting [1] was 2.8 µM.

As to `CCNC[C@@H]1NC[C@H](c2ccccc2)c2ccccc21` (relative stereo) [Example 4, 1,2,3,4-tetrahydro-1-(ethylamino)methyl-4-phenylisoquinoline dihydrochloride], the IC50 under setting [1] is greater than 1 µM.
